# Patent publication US7411083B2, “Substituted acetic acid derivatives” (Wyeth, priority 2003, dated 2008)
# Target: T1, recombinant human plasminogen activator inhibitor-1 (PAI-1) (Homo sapiens, UniProt P05121)
# T1 construct: purchased Molecular Innovations, Royal Oak, Mich
# Assay: Screening for PAI-1 inhibition (residual tPA activity, Spectrozyme-tPA chromogenic substrate)
# Type: biochemical
# Settings: test compound at 100 Um; pH 6.6 buffer, 140 nM PAI-1, 70 nM tPA
# Procedure: Screening for PAI-1 inhibition. Test compounds are dissolved in DMSO at a final concentration of 10 Mm, then diluted 100× in physiologic buffer. The inhibitory assay is initiated by the addition of the test compound (1-100 μM final concentration, maximum DMSO concentration of 0.2%) in a Ph 6.6 buffer containing 140 Nm recombinant human plasminogen activator inhibitor-1 (PAI-1; Molecular Innovations, Royal Oak, Mich.). Following a 1 hour incubation at room temperature, 70 Nm of recombinant human tissue plasminogen activator (Tpa) is added, and the combination of the test compound, PAI-1 and Tpa is incubated for an additional 30 minutes. Following the second incubation, Spectrozyme-Tpa (American Diagnostica, Greenwich, Conn.), a chromogenic substrate for Tpa, is added and absorbance read at 405 nm at 0 and 60 minutes. Relative PAI-1 inhibition is equal to the residual Tpa activity in the presence of the test compounds and PAI-1. Control treatments include the complete inhibition of Tpa by PAI-1 at the molar ratio employed (2:1), and the absence of any effect of the test compound on Tpa alone.
# T1 sequence (P05121 24-402): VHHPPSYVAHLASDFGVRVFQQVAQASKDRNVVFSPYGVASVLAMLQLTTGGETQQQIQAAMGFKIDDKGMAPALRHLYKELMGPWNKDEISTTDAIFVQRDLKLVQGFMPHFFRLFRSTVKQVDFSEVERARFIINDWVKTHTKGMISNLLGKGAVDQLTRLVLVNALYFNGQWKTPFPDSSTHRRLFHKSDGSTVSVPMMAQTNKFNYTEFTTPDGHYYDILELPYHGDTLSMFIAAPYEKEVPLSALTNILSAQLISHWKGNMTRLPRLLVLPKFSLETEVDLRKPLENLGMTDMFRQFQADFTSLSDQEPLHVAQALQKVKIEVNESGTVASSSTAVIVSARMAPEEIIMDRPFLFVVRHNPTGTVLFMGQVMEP
row,SMILES,inhibition at 100 µM [%]
1,"O=C(O)CO/N=C/c1ccc(-c2cccc(OCc3cccc(C(F)(F)F)c3)c2)cc1 [Compound 94, ({[(1E)-(3′-{[3-(trifluoromethyl)benzyl]oxy}-1,1′-biphenyl-4-yl)methylidene]amino}oxy)acetic acid]",74
2,"O=C(O)CO/N=C/c1ccc(OCc2cccc(C(F)(F)F)c2)cc1OCc1cccc(C(F)(F)F)c1 [Compound 130, ({[(1E)-(2,4-bis{[3-(trifluoromethyl)benzyl]oxy}phenyl)methylidene]amino}oxy)acetic acid]",91
3,"O=C(O)CO/N=C/c1cccc(-c2cccc(OCc3cc(C(F)(F)F)cc(C(F)(F)F)c3)c2)c1 [Compound 61, ({[(1E)-(3′-{[3,5-bis(trifluoromethyl)benzyl]oxy}-1,1′-biphenyl-3-yl)methylidene]amino}oxy)acetic acid]",74
4,"O=C(O)CO/N=C/c1cccc(OCc2ccc(F)c(F)c2)c1OCc1ccc(F)c(F)c1 [Compound 141, {[((1E)-{2,3-bis[(3,4-difluorobenzyl)oxy]phenyl}methylidene)amino]oxy}acetic acid]",48
5,"O=C(O)CO/N=C/c1cccc(OCc2ccc(F)cc2)c1OCc1ccc(F)cc1 [Compound 133, {[((1E)-{2,3-bis[(4-fluorobenzyl)oxy]phenyl}methylidene)amino]oxy}acetic acid]",20
6,"Cc1ccc(COc2cccc(-c3cccc(/C=N/OCC(=O)O)c3)c2)cc1 [Compound 70, {[((1E)-{3′-[(4-methylbenzyl)oxy]-1,1′-biphenyl-3-yl}methylidene)amino]oxy}acetic acid]",83
7,"CC(C)(C)c1ccc(COc2cccc(-c3ccc(/C=N/OCC(=O)O)cc3)c2)cc1 [Compound 89, {[((1E)-{3′-[(4-tert-butylbenzyl)oxy]-1,1′-biphenyl-4-yl}methylidene)amino]oxy}acetic acid]",57
8,"Cn1cc(/C=N/OCC(=O)O)c2cc(OCc3ccc4ccccc4c3)ccc21 [Compound 57, [({(1E)-[1-methyl-5-(2-naphthylmethoxy)-1H-indol-3-yl]methylidene}amino)oxy]acetic acid]",64
9,"CC(C)(C)c1ccc(COc2ccc(OCc3ccc(C(C)(C)C)cc3)c(/C=N/OCC(=O)O)c2)cc1 [Compound 156, {[((1E)-{2,5-bis[(4-tert-butylbenzyl)oxy]phenyl}methylidene)amino]oxy}acetic acid]",99
10,"CC(C)(C)c1ccc(COc2ccc3c(c2)c(/C=N/OCC(=O)O)cn3Cc2ccccc2)cc1 [Compound 6, {[((1E)-{1-benzyl-5-[(4-tert-butylbenzyl)oxy]-1H-indol-3-yl}methylidene)amino]oxy}acetic acid]",68
11,"O=C(O)CO/N=C/c1cccc(-c2cccc(OCc3ccccc3Cl)c2)c1 [Compound 67, {[((1E)-{3′-[(2-chlorobenzyl)oxy]-1,1′-biphenyl-3-yl}methylidene)amino]oxy}acetic acid]",87
12,"C=CCn1cc(/C=N/OCC(=O)O)c2cc(OCc3ccc(Br)cc3)ccc21 [Compound 7, {[((1E)-{1-allyl-5-[(4-bromobenzyl)oxy]-1H-indol-3-yl}methylidene)amino]oxy}acetic acid]",83
13,"CC(C)Cc1ccc(OCC#Cc2cccc(/C=N/OCC(=O)O)c2)cc1 [Compound 173, {[((1E)-{3-[3-(4-isobutylphenoxy)prop-1-ynyl]phenyl}methylidene)amino]oxy}acetic acid]",56
14,"Cc1ccc(COc2ccc(/C=N/OCC(=O)O)cc2OCc2ccc(C)cc2)cc1 [Compound 120, {[((1E)-{3,4-bis[(4-methylbenzyl)oxy]phenyl}methylidene)amino]oxy}acetic acid]",78
15,"O=C(O)CO/N=C/c1cn(Cc2ccccc2)c2ccc(OCc3cccc(Cl)c3)cc12 [Compound 18, {[((1E)-{1-benzyl-5-[(3-chlorobenzyl)oxy]-1H-indol-3-yl}methylidene)amino]oxy}acetic acid]",84
16,"CCn1cc(/C=N/OCC(=O)O)c2cc(OCc3ccc(C(F)(F)F)cc3)ccc21 [Compound 2, ({[(1E)-(1-ethyl-5-{[4-(trifluoromethyl)benzyl]oxy}-1H-indol-3-yl)methylidene]amino}oxy)acetic acid]",83
17,"Cc1cccc(COc2cccc(/C=N/OCC(=O)O)c2OCc2cccc(C)c2)c1 [Compound 138, {[((1E)-{2,3-bis[(3-methylbenzyl)oxy]phenyl}methylidene)amino]oxy}acetic acid]",88
18,"CCn1cc(/C=N/OCC(=O)O)c2cc(OCc3ccc(C(C)(C)C)cc3)ccc21 [Compound 5, {[((1E)-{5-[(4-tert-butylbenzyl)oxy]-1-ethyl-1H-indol-3-yl}methylidene)amino]oxy}acetic acid]",93
19,"C=CCn1cc(/C=N/OCC(=O)O)c2cc(OCc3cccc(C(F)(F)F)c3)ccc21 [Compound 22, ({[(1E)-(1-allyl-5-{[3-(trifluoromethyl)benzyl]oxy}-1H-indol-3-yl)methylidene]amino}oxy)acetic acid]",80
20,"O=C(O)CO/N=C/c1cccc(-c2ccc(OCc3c(Cl)cccc3Cl)cc2)c1 [Compound 87, {[((1E)-{4′-[(2,6-dichlorobenzyl)oxy]-1,1′-biphenyl-3-yl}methylidene)amino]oxy}acetic acid]",85
21,"O=C(O)CO/N=C/c1cn(Cc2ccccc2)c2ccc(OCc3ccccc3Cl)cc12 [Compound 29, {[((1E)-{1-benzyl-5-[(2-chlorobenzyl)oxy]-1H-indol-3-yl}methylidene)amino]oxy}acetic acid]",82
22,"O=C(O)CO/N=C/c1cccc(-c2cccc(OCc3ccc(C(F)(F)F)cc3)c2)c1 [Compound 58, ({[(1E)-(3′-{[4-(trifluoromethyl)benzyl]oxy}-1,1′-biphenyl-3-yl)methylidene]amino}oxy)acetic acid]",84
23,"O=C(O)CO/N=C/c1cn(Cc2ccccc2)c2ccc(OCc3cc(C(F)(F)F)cc(C(F)(F)F)c3)cc12 [Compound 12, ({[(1E)-(1-benzyl-5-{[3,5-bis(trifluoromethyl)benzyl]oxy}-1H-indol-3-yl)methylidene]amino}oxy)acetic acid]",57
24,"O=C(O)CO/N=C/c1ccc(-c2ccc(OCc3ccccc3Cl)cc2)cc1 [Compound 107, {[((1E)-{4′-[(2-chlorobenzyl)oxy]-1,1′-biphenyl-4-yl}methylidene)amino]oxy}acetic acid]",30
25,"O=C(O)CO/N=C/c1cccc(-c2ccc(OCc3ccc(Cl)cc3)cc2)c1 [Compound 81, {[((1E)-{4′-[(4-chlorobenzyl)oxy]-1,1′-biphenyl-3-yl}methylidene)amino]oxy}acetic acid]",28
26,"O=C(O)CO/N=C/c1cccc(C#CCOc2ccc(Br)cc2)c1 [Compound 169, {[((1E)-{3-[3-(4-bromophenoxy)prop-1-ynyl]phenyl}methylidene)amino]oxy}acetic acid]",60
27,"C#CCn1cc(/C=N/OCC(=O)O)c2cc(OCc3cc(C(F)(F)F)cc(C(F)(F)F)c3)ccc21 [Compound 35, [({(1E)-[5-{[3,5-bis(trifluoromethyl)benzyl]oxy}-1-(2-propynyl)-1H-indol-3-yl]methylidene}amino)oxy]acetic acid]",44
